Results taken from patent EP1897937A1, “Method of culturing NPCs” (NeuroProgen GmbH Leipzig, priority 2006, dated 2008).

Experiments:
Type in all cases: cell-based, human
hmNPCs [1] = assay: Short-term proliferation: Ki67/nestin immunostaining; conditions: Homo sapiens, 120 h, 1 µM, 5 subsequent days
Description: To determine long-term proliferation, […] were plated and expanded for 2 passages with or without addition of various agents (see below) to the custom expansion media containing the growth factors EGF and FGF2. Different fetal midbrain tissues were included in this study. At the end of the proliferation period, differentiation of […] was induced via replacement of expansion media with mitogen-free media containing 1% FCS, 5 μM forskoline (Sigma-Aldrich Chemie GmbH Munich, Germany), and 100 pg/ml IL-1β (Sigma). The differentiation and expansion media were supplemented with different drugs as appropriate. Prior to immunocytochemistry or protein extraction, […] were allowed to differentiate for 1 week. To determine short-term proliferation via Ki67 immunostaining, the cells were seeded into 24-well plates (70,000 cells/well) and left overnight to rest. P2 receptor agonists (ATP, UTP, ATP + UTP, ADP, ADPβS) were supplied daily for 5 consecutive days. Ki67/nestin double-positive cells were counted in 8 randomly selected fields of nucleotide-treated or untreated samples. For the assessment of MAPK phosphorylation the cells were kept free of mitogens for 2 d prior to addition of the MEK-inhibitor in expansion media. In addition, the MEK-inhibitor was added during the differentiation period 15 min before UTP administration. […] Cover-slips were mounted onto glass slides and examined under a fluorescence microscope (Zeiss Axiovert 200). Acquisition of the cells was performed using the Image-analysis software AxioVision 4 (Carl Zeiss AG, Jena, Germany). The following primary antibodies were used for immunofluorescence: rabbit polyclonal anti-β-tubulin III (anti-Tuj1) antibody, rabbit polyclonal anti-tyrosine hydroxylase antibody , mouse monoclonal anti-nestin antibody (Pharmingen, San Diego, CA, USA), rabbit polyclonal anti-Ki67 antigen antibody (Novocastra Laboratories Ltd, Newcastle upon Tyne, UK). Estimation of the TH-positive cell numbers was performed by counting of cells among approximately 1000 differentiated cells in total within 6 randomly selected fields.

hmNPCs [2] = assay: Dopaminergic differentiation: counting of TH-positive cells by immunocytochemistry
Description: (§1) To determine long-term proliferation, hmNPCs were plated and expanded for 2 passages with or without addition of various agents (see below) to the custom expansion media containing the growth factors EGF and FGF2. Different fetal midbrain tissues were included in this study. At the end of the proliferation period, differentiation of hmNPCs was induced via replacement of expansion media with mitogen-free media containing 1% FCS, 5 µM forskoline (Sigma-Aldrich Chemie GmbH Munich, Germany), and 100 pg/ml IL-1β (Sigma). The differentiation and expansion media were supplemented with different drugs as appropriate. Prior to immunocytochemistry or protein extraction, hmNPCs were allowed to differentiate for 1 week. To determine short-term proliferation via Ki67 immunostaining, the cells were seeded into 24-well plates (70,000 cells/well) and left overnight to rest. P2 receptor agonists (ATP, UTP, ATP + UTP, ADP, ADPβS) were supplied daily for 5 consecutive days. Ki67/nestin double-positive cells were counted in 8 randomly selected fields of nucleotide-treated or untreated samples. For the assessment of MAPK phosphorylation the cells were kept free of mitogens for 2 d prior to addition of the MEK-inhibitor in expansion media. In addition, the MEK-inhibitor was added during the differentiation period 15 min before UTP administration.
(§2) UTP, UDP, ATP, ADP, ADPβS and suramin were purchased from Sigma (Sigma-Aldrich Chemie GmbH Munich, Germany). UTP and UDP were applied at different concentrations (1 µM, 10 µM, 100 µM), ATP at 100 µM, ADP at 100 µM, and ADPβS at100 µM. During expansion of the cells, the nucleotides were renewed once a week with every media change, unless otherwise stated. They were applied once at the beginning of the differentiation period. The P2 receptor antagonist suramin (10 µM) was added to expansion media 30 min prior to addition of UTP (100 µM). The stock solution of the MEK1/2 inhibitor U0126 (Promega Corporation, Mannheim, Germany) was prepared in dimethyl sulfoxide (DMSO) at a concentration of 10 mM. The stock solution was then diluted in 0.1 M PBS to obtain a concentration of 1 mM. MEK inhibitor (final concentration 10 µM) was added to mitogen-free expansion media, 15 min before UTP treatment (1 µM) of hmNPCs.
Expanded or one week differentiated hmNPCs were fixed with 4% paraformaldehyde in PBS for 10 min at room temperature and washed with PBS, counterstained with the DNA-binding dye 4'-6-Diamidino-2-phenylindole (DAPI, 2 µg/ml in PBS) for 15 min at room temperature, washed twice in PBS followed by incubation in blocking buffer (10% FCS, 0.2% Triton-X 100 in PBS, pH 7.2) for 30 min at room temperature. After incubation with a primary antibody (over night at 4°C in blocking buffer), the cells were incubated with fluorescent secondary antibodies, Alexa Fluor® 488 conjugate or Alexa Fluor® 594 conjugate (Molecular Probes, Eugene, USA). Cover-slips were mounted onto glass slides and examined under a fluorescence microscope (Zeiss Axiovert 200). Acquisition of the cells was performed using the Image-analysis software AxioVision 4 (Carl Zeiss AG, Jena, Germany). The following primary antibodies were used for immunofluorescence: rabbit polyclonal anti-β-tubulin III (anti-Tuj1) antibody, rabbit polyclonal anti-tyrosine hydroxylase antibody , mouse monoclonal anti-nestin antibody (Pharmingen, San Diego, CA, USA), rabbit polyclonal anti-Ki67 antigen antibody (Novocastra Laboratories Ltd, Newcastle upon Tyne, UK). Estimation of the TH-positive cell numbers was performed by counting of cells among approximately 1000 differentiated cells in total within 6 randomly selected fields.

hmNPCs [3] = assay: Dopaminergic differentiation: TH protein expression by Western blot
Description: as §1, §2
In order to prepare protein extracts, hmNPCs were collected, washed with ice-cold PBS and lysed in buffer [10 mM HEPES-KOH (pH 7.9), 10 mM KCI, 1.5 mM MgCl2, 0.1% NP-40], supplemented with protease inhibitor cocktail (Roche). After a brief centrifugation at 4°C/10 000×g, protein concentrations and protein yield from extracts were determined using the Bradford method (Bio-Rad, Hercules, CA, USA). To preserve the phosphorylation state of proteins, extracts for the MAPK experiment were obtained using the PhosphoSafe™ extraction reagent containing phophatase inhibitors (Novagen). […] Membranes were blocked with 5% (wt/vol) nonfat dry milk in PBS-T (PBS, 0.1% (vol/vol) Tween 20) for 2 h at room temperature and subsequently incubated with the desired primary antibody (diluted in PBS containing 5% non-fat milk and 0.1% Tween 20) overnight at 4 °C with gentle agitation. The membrane was incubated with horseradish peroxidase-coupled secondary antibody for 1 h at room temperature. Chemiluminescence detection was performed by incubating the membranes with SuperSignal-Dura substrate (Pierce Biotechnology, Rockford, U.S.A) followed by analysis on a CCD cooling camera (Fuji LAS-1000plus). The chemiluminescence was quantified using the AIDA, two-dimensional densitometry software (Raytest lsotopenmeb, Straubenhardt, Germany).

**Q.** Which results are given for `O=c1ccn([C@@H]2O[C@H](COP(=O)(O)OP(=O)(O)OP(=O)(O)O)[C@@H](O)[C@H]2O)c(=O)[nH]1` [UTP, uridine 5'-triphosphate]?
**A.** activity at 1 µM (hmNPCs [1]; read-out: NPCs double-immunoreactive for Ki67 and nestin): 193 ± 3%; activity at 1 µM (hmNPCs [1]; read-out: cells immunoreactive for nestin alone): 188 ± 2%; contribution of TH-immunopositive cells to the total of Tuj1-immunopositive cells (hmNPCs [2]; 100 µM, 2 weeks of expansion followed by 1 week of differentiation): increased; activity at 100 µM (hmNPCs [2]; Homo sapiens, 168 h, 100 µM each, once, only during the differentiation period of one week, read-out: number of TH-positive (dopaminergic) cells as compared to control): 239 ± 27%; activity at 1 µM (hmNPCs [2]; Homo sapiens, 1 µM, 2 weeks of expansion and one week of differentiation, read-out: number of TH-positive cells): 211 ± 30%; activity at 100 µM (hmNPCs [2]; Homo sapiens, 100 µM during proliferation and differentiation, read-out: number of TH-positive cells): 267 ± 20%; TH expression (hmNPCs [3]; 1 µM during 2 weeks of expansion, then 100 µM during 1 week of differentiation): 529 ± 20%; expression of TH (hmNPCs [3]; 100 µM, one week of differentiation): increased; activity at 100 µM (hmNPCs [3]; Homo sapiens, 100 µM, long-term treatment, read-out: TH protein expression in Western blots as compared to controls): 319 ± 5%
